This passage reports T/C results from PubChem BioAssay AID330 (DTP/NCI, 2004).

This test relates to P388 leukemia ip, CD2F1 mice, survival T/C. The test can be described thus: NCI In Vivo Anticancer Drug Screen. Data for tumor model P388 Leukemia (intraperitoneal) in CD2F1 (CDF1) mice. The following applies: endpoint: median survival time, higher = longer survival. In outline: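 Mice carrying the transplanted tumor received test compound or vehicle. Survival was recorded in each group, and the value is the treated-group measurement divided by that of the vehicle-treated control group.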

Where [1] appears, read: dose: 60.0 mg/kg/injection, schedule: Q01DX005 (ip), vehicle: saline with Tween-80.
The mark [2] stands for this setting: dose: 120.0 mg/kg/injection, schedule: Q01DX005 (ip), vehicle: saline with Tween-80.
The mark [3] stands for this setting: dose: 50.0 mg/kg/injection, schedule: Q01DX009 (ip), vehicle: saline.
Setting [4] is: dose: 100.0 mg/kg/injection, schedule: Q01DX009 (ip), vehicle: saline.
Where [5] appears, read: dose: 200.0 mg/kg/injection, schedule: Q01DX009 (ip), vehicle: saline.
Setting [6] is: dose: 50.0 mg/kg/injection, schedule: Q01DX005 (ip), vehicle: Klucel (hydroxypropylcellulose) (HPC).
Where [7] appears, read: dose: 100.0 mg/kg/injection, schedule: Q01DX005 (ip), vehicle: Klucel (hydroxypropylcellulose) (HPC).
Where [8] appears, read: dose: 200.0 mg/kg/injection, schedule: Q01DX005 (ip), vehicle: Klucel (hydroxypropylcellulose) (HPC).
Where [9] appears, read: dose: 50.0 mg/kg/injection, schedule: Q01DX005 (ip), vehicle: saline with Tween-80.
[10] abbreviates: dose: 100.0 mg/kg/injection, schedule: Q01DX005 (ip), vehicle: saline with Tween-80.
The mark [11] stands for this setting: dose: 200.0 mg/kg/injection, schedule: Q01DX005 (ip), vehicle: saline with Tween-80.
Setting [12] is: dose: 240.0 mg/kg/injection, schedule: Q01DX005 (ip), vehicle: saline with Tween-80.
[13] abbreviates: dose: 50.0 mg/kg/injection, schedule: Q01DX009 (ip), vehicle: Klucel (hydroxypropylcellulose) (HPC).
Where [14] appears, read: dose: 100.0 mg/kg/injection, schedule: Q01DX009 (ip), vehicle: Klucel (hydroxypropylcellulose) (HPC).
Setting [15] is: dose: 12.5 mg/kg/injection, schedule: Q01DX005 (ip), vehicle: saline with Tween-80.
Where [16] appears, read: dose: 25.0 mg/kg/injection, schedule: Q01DX005 (ip), vehicle: saline with Tween-80.
Where [17] appears, read: dose: 50.0 mg/kg/injection, schedule: Q01DX009 (ip), vehicle: saline with Tween-80.
Where [18] appears, read: dose: 100.0 mg/kg/injection, schedule: Q01DX009 (ip), vehicle: saline with Tween-80.
Where [19] appears, read: dose: 60.0 mg/kg/injection, schedule: Q01DX005 (ip), vehicle: Klucel (hydroxypropylcellulose) (HPC).
Where [20] appears, read: dose: 120.0 mg/kg/injection, schedule: Q01DX005 (ip), vehicle: Klucel (hydroxypropylcellulose) (HPC).
[21] abbreviates: dose: 240.0 mg/kg/injection, schedule: Q01DX005 (ip), vehicle: Klucel (hydroxypropylcellulose) (HPC).

Values joined by “and” are separate entries in the source; they are usually repeats but may differ in a detail not shown here. Identical values can stand only once. Toxic doses and inconclusive results are not listed.

As for `CC(=Nc1c[nH]c(=O)[nH]c1=O)c1cc(C)ccc1O`, the T/C by setting is: (dose: 100.0 mg/kg/injection, schedule: Q04DX002 (ip), vehicle: suspension in saline) 105 % of control; (dose: 200.0 mg/kg/injection, schedule: Q04DX002 (ip), vehicle: suspension in saline) 101 % of control; (dose: 400.0 mg/kg/injection, schedule: Q04DX002 (ip), vehicle: suspension in saline) 104 % of control.
`Clc1ccc(COCc2ccccc2Cn2ccnc2)cc1`: the T/C was 95 % of control under setting [1] and 99 % of control under setting [2].
`CC1(C)CC(=NNC(N)=S)CC(C)(C)N1`: the T/C was 94 % of control under setting [3], 97 % of control under setting [4] and 99 % of control under setting [5].
For `COc1cc(O)c2c(=O)c3c(O)c(OC4OC(COC5OC(C)C(OC(C)=O)C(O)C5O)C(O)C(O)C4O)ccc3oc2c1` (stereo not drawn), the T/C runs as follows: (dose: 1.5 mg/kg/injection, schedule: Q01DX009 (ip), vehicle: saline) 100 % of control; (dose: 3.0 mg/kg/injection, schedule: Q01DX009 (ip), vehicle: saline) 100 % of control; (dose: 6.0 mg/kg/injection, schedule: Q01DX009 (ip), vehicle: saline) 107 % of control; (dose: 12.0 mg/kg/injection, schedule: Q01DX009 (ip), vehicle: saline) 103 % of control.
Take `Cn1c2cc3c(c(O)c2c(=O)c2cccnc21)C=CC(C)(C)O3`: the T/C is 104 % of control under setting [6], 91 % of control under setting [7] and 93 % of control under setting [8].
Regarding `Cc1nnc(SCC2=C(C(=O)O)N3C(=O)C(NC(=O)Cn4cc(Cl)c(=O)c(Cl)c4)C3SC2)s1` (stereo not drawn), the T/C reads like this: (dose: 50.0 mg/kg/injection, schedule: Q01DX009 (ip), vehicle: water) 105 % of control; (dose: 100.0 mg/kg/injection, schedule: Q01DX009 (ip), vehicle: water) 101 % of control; (dose: 200.0 mg/kg/injection, schedule: Q01DX009 (ip), vehicle: water) 100 % of control.
As to `S=C=[N][Sn]([N]=C=S)([c]1ccccc1)[c]1ccccc1.c1ccc2nc(-c3ccc4ccccc4n3)ccc2c1`, the T/C (dose: 1.87 mg/kg/injection, schedule: Q01DX005 (ip), vehicle: Klucel (hydroxypropylcellulose) (HPC)) is 97 % of control; the T/C (dose: 3.75 mg/kg/injection, schedule: Q01DX005 (ip), vehicle: Klucel (hydroxypropylcellulose) (HPC)) is 109 % of control and 110 % of control.
As for `CCCCCCN(CCCCCC)CC(O)c1cc(-c2ccccc2)nc2ccccc12` (stereo not drawn), the T/C was 100 % of control under setting [9], 103 % of control under setting [10] and 105 % of control under setting [11].
For `CC(=O)OCCNc1n[nH]c(=O)c2cnccc12`, the T/C by setting is: (dose: 30.0 mg/kg/injection, schedule: Q01DX005 (ip), vehicle: saline with Tween-80) 110 % of control; under setting [1], 104 % of control; under setting [2], 101 % of control; under setting [12], 103 % of control.
For `CCOC(=O)CS(=O)(=O)CCS(=O)(=O)CC(=O)OCC`, the T/C was 95 % of control under setting [3], 97 % of control under setting [4] and 102 % of control under setting [5].
`CCc1cccc(NC(=O)NNC(=O)c2ccncc2)c1`: the T/C by setting is: under setting [13], 96 % of control; under setting [14], 100 % of control.
`Oc1ccc(CCl)c2cccnc12`: the T/C reads like this: (dose: 12.5 mg/kg/injection, schedule: Q01DX009 (ip), vehicle: saline) 98 % of control; (dose: 25.0 mg/kg/injection, schedule: Q01DX009 (ip), vehicle: saline) 101 % of control; under setting [4], 150 % of control.
Turning to `NCC(=O)NC(CSC(c1ccccc1)c1ccccc1)C(=O)NCC(=O)O` (stereo not drawn), the T/C by setting is: under setting [6], 102 % of control; under setting [7], 103 % of control; under setting [8], 96 % of control.
In the case of `O=P(c1cccs1)(c1cccs1)c1cccs1`, the T/C by setting is: under setting [13], 96 % of control; under setting [14], 92 % of control; (dose: 200.0 mg/kg/injection, schedule: Q01DX009 (ip), vehicle: Klucel (hydroxypropylcellulose) (HPC)) 101 % of control.
On to `COC(=O)[C@]1(C)CCC[C@]2(C)c3ccc(C(C)C)cc3C(=O)C[C@@H]12`, for which the T/C runs as follows: under setting [1], 95 % of control; under setting [2], 94 % of control; under setting [12], 93 % of control.
As to `O=[N+]([O-])CC(c1ccccc1)C(C[N+](=O)[O-])c1ccccc1` (stereo not drawn), the T/C is 100 % of control (dose: 6.25 mg/kg/injection, schedule: Q01DX005 (ip), vehicle: saline with Tween-80); 87 % of control under setting [15]; 95 % of control under setting [16]; 91 % of control under setting [9]; 91 % of control and 86 % of control under setting [10].
As for `CC(C)(CCl)C(=O)NN=C(c1ccccc1)c1ccccc1`, the T/C is 107 % of control under setting [17]; 107 % of control under setting [18]; 110 % of control (dose: 200.0 mg/kg/injection, schedule: Q01DX009 (ip), vehicle: saline with Tween-80).
`N#CCc1ccc(N(CCO)CCO)cc1`: the T/C reads like this: under setting [15], 102 % of control; under setting [16], 101 % of control; under setting [9], 101 % of control and 104 % of control.
Turning to `Cc1ccc2cccc(OC(=O)Nc3cccc(C(F)(F)F)c3)c2n1`, the T/C was 101 % of control under setting [19], 107 % of control under setting [20] and 105 % of control under setting [21].
Turning to `O=C(O)C1=C(C(=O)O)C2c3ccccc3C1c1ccccc12`, the T/C was 99 % of control under setting [9], 90 % of control under setting [10] and 103 % of control under setting [11].
With `CC12CCC3c4ccc(OC(=O)C56C=CC(=O)C5C5C=CC6CC5)cc4CCC3C1CCC2=O` (stereo not drawn), the T/C is 91 % of control (dose: 25.0 mg/kg/injection, schedule: Q01DX005 (ip), vehicle: distilled water + Tween-80); 95 % of control (dose: 50.0 mg/kg/injection, schedule: Q01DX005 (ip), vehicle: distilled water + Tween-80); 87 % of control (dose: 100.0 mg/kg/injection, schedule: Q01DX005 (ip), vehicle: distilled water + Tween-80); 95 % of control (dose: 200.0 mg/kg/injection, schedule: Q01DX005 (ip), vehicle: distilled water + Tween-80).
Regarding `CCCCCCCCCCCCCCCCC/C=C1\CC(=O)OC1=O`, the T/C is 103 % of control (dose: 25.0 mg/kg/injection, schedule: Q01DX009 (ip), vehicle: saline with Tween-80); 97 % of control under setting [17]; 89 % of control under setting [18].
Take `CCOC(=O)CC(=O)NCCc1cccc(OC)c1OC`: the T/C reads like this: (dose: 100.0 mg/kg/injection, schedule: Q04DX003 (ip), vehicle: other) 100 % of control; (dose: 200.0 mg/kg/injection, schedule: Q04DX003 (ip), vehicle: other) 100 % of control; (dose: 400.0 mg/kg/injection, schedule: Q04DX003 (ip), vehicle: other) 105 % of control.
As to `O=C1OC2(C=C(O)C1=O)CCCCC2`, the T/C by setting is: under setting [19], 106 % of control; under setting [20], 107 % of control; under setting [21], 116 % of control.
For `Cc1ccc(=O)c2ccsc2c1`, the T/C reads like this: (dose: 100.0 mg/kg/injection, schedule: Q04DX003 (ip), vehicle: Klucel (hydroxypropylcellulose) (HPC)) 105 % of control; (dose: 200.0 mg/kg/injection, schedule: Q04DX003 (ip), vehicle: Klucel (hydroxypropylcellulose) (HPC)) 94 % of control.
Take `COc1ccccc1C1OC2=C(Nc3ccccc3N2)C1=O` (stereo not drawn): the T/C was 101 % of control (dose: 30.0 mg/kg/injection, schedule: Q01DX005 (ip), vehicle: Klucel (hydroxypropylcellulose) (HPC)); 97 % of control and 98 % of control under setting [19]; 91 % of control under setting [20]; 92 % of control under setting [21].
Turning to `CC1=CC(C)(C)NN1C1=NS(=O)(=O)c2ccccc2N1C`, the T/C is 101 % of control under setting [1], 97 % of control under setting [2] and 101 % of control under setting [12].
